Data reported in publication PMC12817894, “Two solutions for efficient light-harvesting in phototrophic Gemmatimonadota” (mSystems, 2025).

Molecular target: T1, RC (reaction center) of the RC-dLH complex, L and M subunits (Gemmatimonas groenlandica, UniProt A0A6M4ILR2+A0A6M4IPC7)
T1 construct: gene HKW67_08800; native reaction center within the RC-dLH complex purified from Gem. groenlandica cells, DDM-solubilized; RC-U not detected; with Photosynthetic reaction center cytochrome c subunit; Photosynthetic reaction center H subunit, transmembrane part; Photosynthetic reaction center H subunit, cytoplasmic part; Reaction center subunit S
Experiment: cryo-EM structure ([…] Å)
Assay type: binding
Conditions: modeled ligand; placement in RC L/M from known biology

T1 sequence (A0A6M4IPC7 1-274): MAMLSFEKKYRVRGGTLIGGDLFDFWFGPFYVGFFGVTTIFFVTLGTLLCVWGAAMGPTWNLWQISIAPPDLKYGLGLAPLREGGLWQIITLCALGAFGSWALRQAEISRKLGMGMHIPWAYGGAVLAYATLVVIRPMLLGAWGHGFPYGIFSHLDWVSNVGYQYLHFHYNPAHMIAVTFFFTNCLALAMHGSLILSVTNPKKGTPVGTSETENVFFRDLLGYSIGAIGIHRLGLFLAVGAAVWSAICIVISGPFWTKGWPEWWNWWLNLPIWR
T1 sequence (A0A6M4ILR2 1-392): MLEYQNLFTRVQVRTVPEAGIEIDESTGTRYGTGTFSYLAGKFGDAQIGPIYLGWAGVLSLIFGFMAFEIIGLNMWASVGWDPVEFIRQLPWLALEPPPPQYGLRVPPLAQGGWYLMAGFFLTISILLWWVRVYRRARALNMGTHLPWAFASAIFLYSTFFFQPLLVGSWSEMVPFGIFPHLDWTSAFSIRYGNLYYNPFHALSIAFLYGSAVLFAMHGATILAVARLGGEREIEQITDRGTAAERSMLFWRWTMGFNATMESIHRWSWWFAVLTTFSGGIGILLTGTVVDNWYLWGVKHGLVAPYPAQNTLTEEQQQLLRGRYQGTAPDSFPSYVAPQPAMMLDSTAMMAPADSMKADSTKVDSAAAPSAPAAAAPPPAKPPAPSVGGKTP

In the case of CC[C@H]1c2cc3[nH]c4c(c3C)C(=O)[C@H](C(=O)OC)c4c3nc(cc4[nH]c(cc(n2)[C@@H]1C)c(C(C)=O)c4C)[C@@H](C)[C@@H]3CCC(=O)OC/C=C(\C)CCC[C@H](C)CCC[C@H](C)CCCC(C)C [bacteriopheophytin], the “cryo-EM structure (2.3 Å)” value was “bacteriochlorophyll, bacteriopheophytin, gemmatoxanthin, dodecyl-maltoside, phosphoethanolamine, heme, water, cardiolipin, menaquinone, and spirilloxanthin”.
